Data as given in PubChem BioAssay (NCI).
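Test compounds were applied to cells in 96-well plates for 48 hours at 5 doses. TGI: concentration producing complete growth inhibition.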

How the values were obtained:
Test in all cases: DTP human tumour cell line panel, 48 h
786-0 renal = test system: 786-0 renal
HS 578T breast = test system: HS 578T breast
NCI-H522 lung = test system: NCI-H522 lung
OVCAR-8 ovarian = test system: OVCAR-8 ovarian
HCT-15 colon = test system: HCT-15 colon
SF-268 CNS = test system: SF-268 CNS
EKVX NSCLC = test system: EKVX NSCLC
HT29 colon = test system: HT29 colon
A549 NSCLC = test system: A549 NSCLC
ACHN renal = test system: ACHN renal
OVCAR-3 ovarian = test system: OVCAR-3 ovarian
SK-MEL-5 melanoma = test system: SK-MEL-5 melanoma
U251 CNS = test system: U251 CNS
SW-620 colon = test system: SW-620 colon
HCT-116 colon = test system: HCT-116 colon
NCI-H460 lung = test system: NCI-H460 lung
HOP-62 NSCLC = test system: HOP-62 NSCLC
RPMI-8226 leukemia = test system: RPMI-8226 leukemia
SNB-75 CNS = test system: SNB-75 CNS
SNB-19 CNS = test system: SNB-19 CNS
MDA-MB-435 = test system: MDA-MB-435
A498 renal = test system: A498 renal
HL-60(TB) leukemia = test system: HL-60(TB) leukemia
TK-10 renal = test system: TK-10 renal
MCF7 breast = test system: MCF7 breast
MOLT-4 leukemia = test system: MOLT-4 leukemia
SR leukemia = test system: SR leukemia
CCRF-CEM leukemia = test system: CCRF-CEM leukemia
NCI-H226 lung = test system: NCI-H226 lung
SK-MEL-28 melanoma = test system: SK-MEL-28 melanoma
SN12C renal = test system: SN12C renal
NCI/ADR-RES ovarian = test system: NCI/ADR-RES ovarian
PC-3 prostate = test system: PC-3 prostate
OVCAR-5 ovarian = test system: OVCAR-5 ovarian
NCI-H23 lung = test system: NCI-H23 lung
SF-295 CNS = test system: SF-295 CNS
HOP-92 NSCLC = test system: HOP-92 NSCLC
MDA-N = test system: MDA-N
UACC-257 melanoma = test system: UACC-257 melanoma
IGROV1 ovarian = test system: IGROV1 ovarian
DU-145 prostate = test system: DU-145 prostate
OVCAR-4 ovarian = test system: OVCAR-4 ovarian
K-562 leukemia = test system: K-562 leukemia
LOX IMVI melanoma = test system: LOX IMVI melanoma
MALME-3M melanoma = test system: MALME-3M melanoma
HCC-2998 colon = test system: HCC-2998 colon
SF-539 CNS = test system: SF-539 CNS

## O=[N+]([O-])c1cccnc1NCC1(CO)CCCC1
786-0 renal
  TGI: 80.1 µM
HS 578T breast
  TGI: 54 µM
NCI-H522 lung
  TGI: 45.9 µM
OVCAR-8 ovarian
  TGI: 50.7 µM
HCT-15 colon
  TGI: 37.7 µM
SF-268 CNS
  TGI: 70.7 µM
EKVX NSCLC
  TGI: 76.9 µM
HT29 colon
  TGI: 34.8 µM
A549 NSCLC
  TGI: > 100 µM
ACHN renal
  TGI: 70.1 µM
OVCAR-3 ovarian
  TGI: 46 µM
SK-MEL-5 melanoma
  TGI: 30.9 µM
U251 CNS
  TGI: 31.2 µM
SW-620 colon
  TGI: 54.4 µM
HCT-116 colon
  TGI: 67 µM
NCI-H460 lung
  TGI: 47.6 µM
HOP-62 NSCLC
  TGI: > 100 µM
RPMI-8226 leukemia
  TGI: 59.1 µM
SNB-75 CNS
  TGI: 34.9 µM
SNB-19 CNS
  TGI: > 100 µM
MDA-MB-435
  TGI: 44.1 µM
A498 renal
  TGI: > 100 µM
HL-60(TB) leukemia
  TGI: 50.3 µM
TK-10 renal
  TGI: 79.3 µM
MCF7 breast
  TGI: > 100 µM
MOLT-4 leukemia
  TGI: 40.5 µM
SR leukemia
  TGI: 64.2 µM
CCRF-CEM leukemia
  TGI: > 100 µM
NCI-H226 lung
  TGI: 68.4 µM
SK-MEL-28 melanoma
  TGI: 51.3 µM
SN12C renal
  TGI: 53 µM
NCI/ADR-RES ovarian
  TGI: 49 µM
PC-3 prostate
  TGI: 37.8 µM
OVCAR-5 ovarian
  TGI: 87.1 µM
NCI-H23 lung
  TGI: > 100 µM
SF-295 CNS
  TGI: 56.2 µM
HOP-92 NSCLC
  TGI: 54.1 µM
MDA-N
  TGI: 42.3 µM
UACC-257 melanoma
  TGI: 44.3 µM
IGROV1 ovarian
  TGI: 38.7 µM
DU-145 prostate
  TGI: > 100 µM
OVCAR-4 ovarian
  TGI: > 100 µM
K-562 leukemia
  TGI: 53.2 µM
LOX IMVI melanoma
  TGI: 30.3 µM
MALME-3M melanoma
  TGI: 37.5 µM
HCC-2998 colon
  TGI: 32.8 µM
SF-539 CNS
  TGI: 49.7 µM
